From ChEMBL document CHEMBL3585310, “Synthesis and evaluation of artesunateindoloquinoline hybrids as antimalarial drug candidates” (Medchemcomm, 2014)

Tests used:
[1] = Selectivity index, ratio of IC50 for rat L6 cells to IC50 for chloroquine-resistant Plasmodium falciparum K1; format: toxicity, cell-based; conditions: L6 cells (cytotoxicity) versus Plasmodium falciparum K1, read-out: Ratio IC50
Plasmodium falciparum [2] = experiment: Antiplasmodial activity against chloroquine-sensitive Plasmodium falciparum NF54; format: functional, organism-based
Heme = experiment: Binding affinity to heme assessed as inhibition of beta-hematin formation by NP40 detergent based assay
L6 = experiment: Cytotoxicity against rat L6 cells; format: cell-based
[3] = Selectivity index, ratio of IC50 for rat L6 cells to IC50 for chloroquine-sensitive Plasmodium falciparum NF54; format: toxicity, cell-based; conditions: L6 cells (cytotoxicity) versus Plasmodium falciparum NF54, read-out: Ratio IC50
Plasmodium falciparum [4] = experiment: Resistance index, ratio of IC50 for chloroquine-resistant Plasmodium falciparum K1 to IC50 chloroquine-sensitive Plasmodium falciparum NF54; format: functional
Plasmodium falciparum [5] = experiment: Antiplasmodial activity against chloroquine-resistant Plasmodium falciparum K1; format: functional, organism-based
Plasmodium berghei [6] = experiment: Antimalarial activity against Plasmodium berghei infected in NMRI mouse assessed as survival at 10 mg/kg, ip for 4 consecutive days by FACS analysis; format: functional
Plasmodium berghei [7] = experiment: Antimalarial activity against Plasmodium berghei infected in NMRI mouse at 10 mg/kg, ip for 4 consecutive days by FACS analysis; format: functional

C[C@H]1[C@H](OC(=O)CCC(=O)NCCCNc2nc3ccccc3c3[nH]c4ccccc4c23)O[C@@H]2O[C@@]3(C)CC[C@H]4[C@H](C)CC[C@@H]1[C@@]24OO3
selectivity ratio [1]: 3290 | IC50 (Plasmodium falciparum [2]): 1.67 nM | IC50 (Heme): 15700 nM | IC50 (L6): 2200 nM | selectivity ratio [3]: 1320 | Ratio IC50 (Plasmodium falciparum [4]): 0.4 | IC50 (Plasmodium falciparum [5]): 0.67 nM

COC(=O)c1ccc2c(c1)c(NCCCNC(=O)CCC(=O)O[C@@H]1O[C@@H]3O[C@@]4(C)CC[C@H]5CCC[C@@H]([C@H]1C)[C@]53OO4)c1c3ccccc3nc-1n2C
selectivity ratio [1]: 3720 | IC50 (Plasmodium falciparum [2]): 2.88 nM | IC50 (Heme): 29200 nM | IC50 (L6): 3720 nM | selectivity ratio [3]: 1290 | Ratio IC50 (Plasmodium falciparum [4]): 0.35 | IC50 (Plasmodium falciparum [5]): 1 nM

NCCCNc1nc2ccccc2c2[nH]c3ccccc3c12
selectivity ratio [1]: 7.6 | IC50 (Heme): 627000 nM | selectivity ratio [3]: 45.8 | Ratio IC50 (Plasmodium falciparum [4]): 6

COC(=O)c1ccc2c(c1)c(NCC(C)(C)CNC(=O)CCC(=O)O[C@@H]1O[C@@H]3O[C@@]4(C)CC[C@H]5CCC[C@@H]([C@H]1C)[C@]53OO4)c1c3ccccc3nc-1n2C
selectivity ratio [1]: 604 | IC50 (Plasmodium falciparum [2]): 3.17 nM | IC50 (Heme): 25800 nM | IC50 (L6): 695 nM | selectivity ratio [3]: 219 | Ratio IC50 (Plasmodium falciparum [4]): 0.36 | IC50 (Plasmodium falciparum [5]): 1.15 nM

COC(=O)c1ccc2c(c1)c(NCCCN)c1c3ccccc3nc-1n2C
IC50 (Heme): 104000 nM

C[C@H]1[C@H](OC(=O)CCC(=O)NCCCNc2c3ccccc3nc3c2[nH]c2ccccc23)O[C@@H]2O[C@@]3(C)CC[C@H]4[C@H](C)CC[C@@H]1[C@@]24OO3
IC50 (Plasmodium falciparum [2]): 12.2 nM | IC50 (Heme): 17100 nM | IC50 (L6): 2620 nM | selectivity ratio [3]: 215

NCCCNc1c2ccccc2nc2c1[nH]c1ccccc12
IC50 (Plasmodium falciparum [2]): 17.2 nM | IC50 (Heme): 16800 nM | IC50 (L6): 276 nM | selectivity ratio [3]: 16

C[C@H]1[C@H](OC(=O)CCC(=O)NCC(C)(C)CNc2c3c4ccccc4nc-3n(C)c3ccc(Cl)cc23)O[C@@H]2O[C@@]3(C)CC[C@H]4CCC[C@@H]1[C@]42OO3
selectivity ratio [1]: 3130 | IC50 (Plasmodium falciparum [2]): 1.5 nM | IC50 (Heme): 37800 nM | IC50 (L6): 1280 nM | selectivity ratio [3]: 856 | Ratio IC50 (Plasmodium falciparum [4]): 0.27 | IC50 (Plasmodium falciparum [5]): 0.41 nM

COC(=O)c1ccc2c(c1)c(NCC(O)CNC(=O)CCC(=O)O[C@@H]1O[C@@H]3O[C@@]4(C)CC[C@H]5CCC[C@@H]([C@H]1C)[C@]53OO4)c1c3ccccc3nc-1n2C (stereo partly drawn)
selectivity ratio [1]: 3060 | IC50 (Plasmodium falciparum [2]): 1.48 nM | IC50 (Heme): 41700 nM | IC50 (L6): 1220 nM | selectivity ratio [3]: 826 | Ratio IC50 (Plasmodium falciparum [4]): 0.27 | IC50 (Plasmodium falciparum [5]): 0.4 nM

C[C@H]1[C@H](OC(=O)CCC(=O)NCC(C)(C)CNc2c3c4ccccc4nc-3n(C)c3ccc(Br)cc23)O[C@@H]2O[C@@]3(C)CC[C@H]4CCC[C@@H]1[C@]42OO3
selectivity ratio [1]: 1040 | IC50 (Plasmodium falciparum [2]): 3.21 nM | IC50 (Heme): 28900 nM | IC50 (L6): 991 nM | selectivity ratio [3]: 309 | Ratio IC50 (Plasmodium falciparum [4]): 0.3 | IC50 (Plasmodium falciparum [5]): 0.95 nM

C[C@@H]1CC[C@H]2[C@@H](C)C(=O)O[C@@H]3O[C@@]4(C)CC[C@@H]1[C@]32OO4 [ARTEMISININ]
IC50 (Plasmodium falciparum [2]): 4.3 nM | IC50 (Plasmodium falciparum [5]): 2.8 nM

C[C@H]1[C@H](OC(=O)CCC(=O)NCC(C)(C)CNc2c3c4ccccc4nc-3n(C)c3ccccc23)O[C@@H]2O[C@@]3(C)CC[C@H]4CCC[C@@H]1[C@]42OO3
selectivity ratio [1]: 3180 | IC50 (Plasmodium falciparum [2]): 1.14 nM | IC50 (Heme): 70200 nM | IC50 (L6): 2960 nM | selectivity ratio [3]: 2600 | Ratio IC50 (Plasmodium falciparum [4]): 0.82 | IC50 (Plasmodium falciparum [5]): 0.93 nM

C[C@H]1[C@H](OC(=O)CCC(=O)NCCCNc2c3c4ccccc4nc-3n(C)c3ccccc23)O[C@@H]2O[C@@]3(C)CC[C@H]4CCC[C@@H]1[C@]42OO3
selectivity ratio [1]: 3640 | IC50 (Plasmodium falciparum [2]): 0.45 nM | IC50 (Heme): 222000 nM | IC50 (L6): 1530 nM | selectivity ratio [3]: 3400 | MSD (Plasmodium berghei [6]): 7.7 days | Ratio IC50 (Plasmodium falciparum [4]): 0.93 | Activity (Plasmodium berghei [7]): 89.6% | IC50 (Plasmodium falciparum [5]): 0.42 nM
